How the values were obtained:
A427 cells = experiment: Cytotoxicity assay in A427 cell line (resazurin); assay type: cell-based; conditions: Homo sapiens, A-427, A427 lung epithelial cell line, 72 hr incubation, inhibition of proliferation
Experimental: A427 (HTB-53; ATCC), a lung epithelial cell line, was seeded in medium (MEM, 41090101; Gibco) at a cell count of 1500 cells per 100 μL per well in a 96 well edge plate (167425; ThermoFisher). Cells were allowed to grow at 37° C. for 24 hr in 5% CO2 environment (culture conditions) in a Nuaire incubator (humidified). Serially diluted test compounds (100 μL) within the desired testing concentration ranges were added to the culture plate and the cells were further incubated in culture conditions for 72 hr. The experiment was terminated at the designated incubation time by replacing the medium with 100 μL of 1 mM of resazurin (R7017; Sigma) prepared in culture medium, and the plates were further incubated in culture conditions for 4-6 hr. Fluorescence was recorded using a multimodal plate reader (Biotek Synergy Neo) at an excitation wavelength of 535 nm and emission wavelength of 590 nm to obtain relative fluorescence units. Data were analysed as follows: the background fluorescence (blank containing only medium) value was subtracted from each reading and normalized with the vehicle control (DMSO treated cells) to obtain percent survival/proliferation. Percent survival was subtracted from 100 to get the percent inhibition of proliferation which was used to calculate IC50 values. Potency of compounds in other cell lines (such as A549, As-Pc-1, Panc 10.05, A172, U-87 MG) may be determined in an analogous manner.

WEE1 kinase enzyme = molecular target: T1, WEE1 kinase enzyme (Homo sapiens, UniProt P30291); experiment: WEE1 IC50 determination, LanthaScreen Terbium Labeled TR-FRET kinase assay; assay type: biochemical; conditions: WEE1 enzyme 1 nM, ATP 10 μM, 1 h
T1 construct: purchased Invitrogen, Life Technologies PR7373A
Experimental: IC50 values of compounds against WEE1 kinase enzyme were determined by LanthaScreen™ Terbium Labeled TR-FRET assay. Kinase assays were performed in 1× kinase buffer (#PV6135, Invitrogen, Life Technologies Grand Island, N.Y.) where total reaction volume was 10 μL in low-volume 384-well plates (#4511, Corning). Serially diluted compounds (3-fold) were incubated with WEE1 Enzyme (1 nM) (#PR7373A, Invitrogen, Life Technologies, Grand Island, N.Y.) for 10 min, and a mixture of ATP (10 μM) (#A1852, Sigma, St. Louis, Mo.) and fluorescent-PolyGT substrate (200 nM) (#PV3610, Invitrogen, Life Technologies, Grand Island, N.Y.) was added and incubated in the dark at room temperature for 1 h. After 1 h, a 10 μL stop solution containing terbium labeled antibody (4 nM) (#PV3529, Invitrogen, Life Technologies Grand Island, N.Y.) and EDTA (#E5134, Sigma, St. Louis, Mo.) (20 mM) in TR-FRET dilution buffer (#PV3574, Invitrogen, Life Technologies, Grand Island, N.Y.) was added. Readings were taken in a Synergy Neo Plate reader (BioTek, Winooski, Vt.) at single excitation of 340 nm and dual emission at 495 nm and 520 nm respectively.
The % activity of test samples was calculated as (Sample−Min)*100/(Max−Min). [Max: DMSO control, complete reaction with enzyme & DMSO and Min: No enzyme & DMSO]. Percent inhibition (100−% activity) was fitted to the “four-parameter logistic model” in XLfit for determination of IC50 values.

[1] = system: phospho-CDC2 (Tyr15) in A427 cells; experiment: Phospho-CDC2 (Tyr15) sandwich ELISA in A427 cells; assay type: cell-based; conditions: Homo sapiens, A-427, PathScan Phospho-CDC2 (Tyr15) ELISA, specified time (e.g., 24 hr)
Experimental: Changes in the levels of phospho-CDC2 following treatment of cells with test compounds were assessed by enzyme-linked immunosorbent assay (ELISA). A427 cells were plated in 6-well plates and cultured for 24 hr to approximately 80-90% confluency. Medium was replaced, and the cells were treated with the vehicle control or the test compound at several different concentrations. After incubation of treated cells in cell culture conditions for a specified time (e.g., 24 hr), cells were rinsed with ice-cold PBS and lysed in 1× cell lysis buffer containing protease inhibitors and phosphatase inhibitors. The cells were scraped from the plate with a cell scraper after a brief incubation on ice and transferred to a centrifuge tube, and then subjected to three freeze-thaw cycles in liquid nitrogen and a 37° C. water bath for further lysis. The lysates were centrifuged to pellet cell debris (using, for example, a 10 min centrifugation of 2000×g at 4° C.) and the supernatants transferred to fresh tubes on ice. The protein concentrations of the samples were estimated by the Bradford method or equivalent. The ELISA was carried out with the PathScan® Phospho-CDC2 (Tyr15) Sandwich ELISA Kit (Cat. #7176, Cell Signaling Technology, Danvers, Mass.) according to the manufacturer's instructions.

T1 sequence (P30291 whole entry): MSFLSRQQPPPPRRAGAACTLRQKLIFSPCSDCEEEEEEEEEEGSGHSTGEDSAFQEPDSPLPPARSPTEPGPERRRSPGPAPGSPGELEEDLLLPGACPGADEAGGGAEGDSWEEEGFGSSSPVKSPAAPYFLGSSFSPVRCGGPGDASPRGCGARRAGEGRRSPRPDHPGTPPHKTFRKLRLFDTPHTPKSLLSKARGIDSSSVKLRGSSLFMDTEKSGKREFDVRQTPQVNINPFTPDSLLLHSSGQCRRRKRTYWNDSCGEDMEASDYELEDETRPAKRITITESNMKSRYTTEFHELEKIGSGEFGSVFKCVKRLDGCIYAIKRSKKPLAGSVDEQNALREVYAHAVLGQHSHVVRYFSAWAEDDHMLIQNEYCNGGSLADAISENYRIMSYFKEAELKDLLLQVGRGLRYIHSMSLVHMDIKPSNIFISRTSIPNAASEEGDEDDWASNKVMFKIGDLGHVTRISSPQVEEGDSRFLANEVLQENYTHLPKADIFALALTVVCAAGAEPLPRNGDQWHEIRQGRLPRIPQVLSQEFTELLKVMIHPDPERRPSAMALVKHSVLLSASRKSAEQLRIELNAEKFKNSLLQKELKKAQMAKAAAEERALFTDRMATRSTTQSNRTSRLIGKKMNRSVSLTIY

IC50 (WEE1 kinase enzyme) [nM]	IC50 [1] [nM]	SMILES	IC50 (A427 cells) [nM]
107		CC(C)n1cc(-n2c3nc(Nc4ccc5c(c4)CCNC5)ncc3c(=O)n2C(C)C)cn1 [Compound 1.1, 2-isopropyl-1-(1-isopropyl-1H-pyrazol-4-yl)-6-((1,2,3,4-tetrahydroisoquinolin-6-yl)amino)-1,2-dihydro-3H-pyrazolo[3,4-d]pyrimidin-3-one]	> 30000
4		COCC(C)(C)c1cccc(-n2c3nc(Nc4ccc5c(c4)CNCC5)ncc3c(=O)n2C(C)C)n1 [Compound 1.2, 2-isopropyl-1-(6-(1-methoxy-2-methylpropan-2-yl)pyridin-2-yl)-6-((1,2,3,4-tetrahydroisoquinolin-7-yl)amino)-1,2-dihydro-3H-pyrazolo[3,4-d]pyrimidin-3-one]	295
2		CC(C)n1c(=O)c2cnc(Nc3ccc4c(c3)CCNC4)nc2n1-c1cccc(C(=O)N(C)C)c1 [Compound 1.3, 3-(2-isopropyl-3-oxo-6-((1,2,3,4-tetrahydroisoquinolin-6-yl)amino)-2,3-dihydro-1H-pyrazolo[3,4-d]pyrimidin-1-yl)-N,N-dimethylbenzamide]	8160
3		CC(C)n1c(=O)c2cnc(Nc3ccc4c(c3)CNCC4)nc2n1-c1cccc(C(=O)N(C)C)c1 [Compound 1.4, 3-(2-isopropyl-3-oxo-6-((1,2,3,4-tetrahydroisoquinolin-7-yl)amino)-2,3-dihydro-1H-pyrazolo[3,4-d]pyrimidin-1-yl)-N,N-dimethylbenzamide]	3510
21		CC(C)N1CCc2cc(Nc3ncc4c(=O)n(C(C)C)n(-c5ccnc(C(C)(C)C)c5)c4n3)ccc2C1 [Compound 1.5, 1-(2-(tert-butyl)pyridin-4-yl)-2-isopropyl-6-((2-isopropyl-1,2,3,4-tetrahydroisoquinolin-6-yl)amino)-1,2-dihydro-3H-pyrazolo[3,4-d]pyrimidin-3-one]	2070
5	278	CC(C)n1c(=O)c2cnc(Nc3ccc4c(c3)CNCC4)nc2n1-c1ccc(C#N)cc1 [Compound 1.85, 4-(2-isopropyl-3-oxo-6-(1,2,3,4-tetrahydroisoquinolin-7-ylamino)-2,3-dihydro-1H-pyrazolo[3,4-d]pyrimidin-1-yl)benzonitrile]	1860
8		CC(C)n1c(=O)c2cnc(Nc3ccc4c(c3)CCNC4)nc2n1-c1ccc(C#N)cc1 [Compound 1.86, 4-(2-isopropyl-3-oxo-6-(1,2,3,4-tetrahydroisoquinolin-6-ylamino)-2,3-dihydro-1H-pyrazolo[3,4-d]pyrimidin-1-yl)benzonitrile]	1070
4		CC(C)n1c(=O)c2cnc(Nc3ccc4c(c3)CCN(CCCN)C4)nc2n1-c1ccnc(C(C)(C)C)c1 [Compound 1.87, 2,2,2-trifluoroacetaldehyde compound with 6-((2-(3-aminopropyl)-1,2,3,4-tetrahydroisoquinolin-6-yl)amino)-1-(2-(tert-butyl)pyridin-4-yl)-2-isopropyl-1,2-dihydro-3H-pyrazolo[3,4-d]pyrimidin-3-one]	

Source: patent US20220169646A1, “HETEROCYCLIC COMPOUNDS AND USES THEREOF” (Nuvation Bio Inc., priority 2019, published 2022)
